According to US12582809B2, “Treatment of a disease of the gastrointestinal tract with a PDE4 inhibitor” (BT Bidco, Inc., priority 2018, dated 2026):

How the values were obtained:
[1] = parameters: species or system Yorkshire-Cross farm swine; conditions: in vivo
Description: The primary objective of this study was to compare the tissue, plasma, rectal sample, and GI content pharmacokinetics of tacrolimus through oral versus intra-cecal ingestible device delivery in normal Yorkshire-Cross farm swine.
(§1) No further randomization procedure was employed.
Animals in Group 1 received an ingestible device containing 0.8 mL of vehicle solution (80% alcohol, 20% HCO-60). Animals in Group 2 received orally […] liquid formulation of tacrolimus at 4 mg/0.8 mL per animal (Prograf: 5 mg/mL). Animals in Group 3 received intra-cecally an ingestible device containing tacrolimus at 1 mg in 0.8 mL per ingestible device. Animals in Group 4 received intra-cecally an ingestible device containing tacrolimus at 2 mg in 0.8 mL per ingestible device. Animals in Group 5 received intra-cecally an ingestible device containing tacrolimus at 4 mg in 0.8 mL per ingestible device. To control for potential confounding effects of the surgery, all groups fast on Day −11 at least 24 hr before being subjected to anesthesia followed by surgical placements of a cecal port by a veterinary surgeon at Day −10. All animals were fasted for at least 12 hr prior to dosing on Day 1. Animals were dosed via either intra-cecal dosing (IC) or oral dosing (PO) at Day 1 (between 6-8 p.m.). All animals resumed feeding at approximately 4 hours after dose (11-12 p.m. after dosing).
Animals in Group 1 (Vehicle Control) were administered a single intra-cecal ingestible device containing 0.8 mL Vehicle solution (80% alcohol, 20% castor oil (HCO-60) on Day 1. On Day −10 the animals were anesthetized, and a veterinary surgeon surgically placed an intra-cecal port in each animal. On Day 1, each animal was placed into a sling then a single intra-cecal ingestible device containing 0.8 mL vehicle solution (80% alcohol, 20% castor oil (HCO-60)) is introduced by the veterinary surgeon into the cecum via the cecal port in each animal. Following ingestible device placement, the animals were removed from the slings and placed back into their pens with water. All animals resumed feeding at approximately 4 hours after dose. […] A total of 60 samples were collected.
Approximately 200˜400 mg of rectal content were collected, if available, with a fecal swab (Copan Diagnostics Nylon Flocked Dry Swabs, 502CS01). The fecal swab was pre-weighed and weighed after collection in the collection tube (Sterile Tube and Cap No Media, PFPM913S), and the sample weight was recorded. The fecal swab was broken via the breakpoint, and was stored in the collection tube, and immediately frozen at −70° C. […] Immediately following euthanasia, tissue was collected.
For tissue necropsy, small intestine fluid and cecal fluid were collected separately from all the animals into two separate square plastic bottles, and stored at −20° C. The length and diameter of the cecum and the colon was measured from one animal in each group and recorded for reference. Tissues were collected for pharmacokinetic analyses and include mesenteric lymph nodes, a Peyer's Patch, and five gastrointestinal sections, including cecum, proximal colon, transverse colon, distal colon, and rectum. All samples were weighed, and the tissue sample weights were recorded. In each of the five gastrointestinal sections, tissue samples were collected in three different areas where the mucosal surface was visible and not covered by luminal content by using an 8.0-mm punch biopsy tool. Around 3 grams of the total punched sample were collected into a pre-weighed 15-mL conical tube, and the tissue weight was recorded. Three mesenteric lymph nodes were collected from different areas and weighed. At least one Peyer's Patch was collected and weighed.
Luminal contents were collected for pharmacokinetic analyses from the surface of the tissue from each of five gastrointestinal sections: cecum, proximal colon, transverse colon, distal colon, and rectum (total of 75). […]

[2] = Pharmacokinetic study of oral vs intra-cecal administration of tacrolimus (Example 13); parameters: species or system Yorkshire-Cross farm swine; conditions: in vivo, 0.09 mg/kg
Text: as §1

[3] = female, Yorkshire-Cross, pig, po, 12 h

- exposure AUC [1]: < 2000-12 ng·h/mL
- luminal content concentration, distal colon, IC capsule vs PO [1]: Significantly higher
- luminal content concentration, spiral colon, IC capsule vs PO [1]: Significantly higher
- luminal content concentration, transverse colon, IC capsule vs PO [1]: Significantly higher
- tissue concentration, spiral colon, IC capsule vs PO [1]: Significantly higher
- tissue concentration, transverse colon, IC capsule vs PO [1]: Significantly higher
- level of tacrolimus detected in tissue ([1]; po): No measurable level
- Kp at 12 h ([2]; female, Yorkshire-Cross, pig, po): 0
- Ratio Tissue(mean) (ng/g)/Trough(12 hr) (ng/mL), Cecum [2, 3]: 0
- Ratio Tissue(mean) (ng/g)/Trough(12 hr) (ng/mL), Distal Colon [2, 3]: 0
- Ratio Tissue(mean) (ng/g)/Trough(12 hr) (ng/mL), Proximal Colon [2, 3]: 0
- Ratio Tissue(mean) (ng/g)/Trough(12 hr) (ng/mL), Transverse colon [2, 3]: 0
- Trough (12 hr) ([2]; female, Yorkshire-Cross, swine, po, 12 h): 0.568 ng/mL
- concentration at 12 h ([2]; female, Yorkshire-Cross, swine, po, Trough (12 hr)): 0.568 ± 0.291 ng/mL
- AUC0-12 hours in the blood, intra-cecal vs oral [2]: higher
- mean concentration in the blood, intra-cecal vs oral [2]: higher
Compound: C=CC[C@@H]1/C=C(\C)C[C@H](C)C[C@H](OC)[C@H]2O[C@@](O)(C(=O)C(=O)N3CCCC[C@H]3C(=O)O[C@H](/C(C)=C/[C@@H]3CC[C@@H](O)[C@H](OC)C3)[C@H](C)[C@@H](O)CC1=O)[C@H](C)C[C@@H]2OC [tacrolimus]
